PubChem BioAssay (NCI)
Where “and” joins values, the source holds several entries; their conditions need not be identical. Identical values can stand only once.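 Cells were grown in 96-well plates and exposed to each compound for 48 hours at five concentrations; endpoints were interpolated linearly between bracketing concentrations, or set to the highest concentration if not reached. GI50 is the concentration that inhibits growth by half. TGI is the concentration that stops growth completely.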

Experiments:
Test in all cases: growth of human tumour cells (NCI), 48 h
786-0 renal = tested on: 786-0 renal
ACHN renal = tested on: ACHN renal
A498 renal = tested on: A498 renal
OVCAR-4 ovarian = tested on: OVCAR-4 ovarian
IGROV1 ovarian = tested on: IGROV1 ovarian
UACC-257 melanoma = tested on: UACC-257 melanoma
U251 CNS = tested on: U251 CNS
HL-60(TB) leukemia = tested on: HL-60(TB) leukemia
SN12C renal = tested on: SN12C renal
LOX IMVI melanoma = tested on: LOX IMVI melanoma

| SMILES | TGI (786-0 renal) | TGI (ACHN renal) [µM] | TGI (A498 renal) [µM] | TGI (OVCAR-4 ovarian) [µM] | TGI (IGROV1 ovarian) | TGI (UACC-257 melanoma) [µM] | TGI (U251 CNS) [µM] | TGI (HL-60(TB) leukemia) [µM] | TGI (SN12C renal) [µM] | TGI (LOX IMVI melanoma) [µM] | GI50 (786-0 renal) [µM] | GI50 (LOX IMVI melanoma) [µM] | GI50 (ACHN renal) [µM] | GI50 (A498 renal) [µM] | GI50 (OVCAR-4 ovarian) [µM] | GI50 (IGROV1 ovarian) [µM] | GI50 (U251 CNS) [µM] | GI50 (HL-60(TB) leukemia) [µM] | GI50 (SN12C renal) [µM] | GI50 (UACC-257 melanoma) [µM] |
| --- | --- | --- | --- | --- | --- | --- | --- | --- | --- | --- | --- | --- | --- | --- | --- | --- | --- | --- | --- | --- |
| CN=C(NC(=S)N(C)C)N(C)C | > 100 µM | > 100 | > 100 | > 100 | > 100 µM | > 100 | > 100 | > 100 | > 100 | – | – | – | – | – | – | – | – | – | – | – |
| C#CC[N+](C)(CC#C)CC#C | > 100 µM | > 100 | – | > 100 | > 100 µM | > 100 | – | > 100 | > 100 | > 100 | – | – | – | – | – | – | – | – | – | – |
| Cc1c(CCO)c(=O)n2c([nH]c3ccccc32)c1C#N | > 100 µM | > 100 | > 100 | > 100 | > 100 µM | > 100 | > 100 | – | – | > 100 | – | – | – | – | – | – | – | – | – | – |
| O=S(=O)(O)c1ccc(N=Nc2nc(C(F)(F)F)c(C(F)(F)F)[nH]2)cc1 | > 100 µM | > 100 | – | 50.4 | > 100 µM | > 100 | > 100 | > 100 | > 100 | 29.2 | – | – | – | – | – | – | – | – | – | – |
| COC(=O)C1C=CCON2CCc3c(n(C)c4ccccc34)C12 (centres undefined) | > 100 µM | > 100 | > 100 | > 100 | > 100 µM | – | > 100 | > 100 | > 100 | > 100 | – | – | – | – | – | – | – | – | – | – |
| Cc1ccc(C(=O)N(Cc2ccccc2)Cc2ccccc2)cc1N=NN(C)C | > 100 µM | > 92.7 | – | > 87.4 | > 100 µM | 53.4 | > 100 | 61.9 | > 81.1 | 15.6 | – | – | – | – | – | – | – | – | – | – |
| O=C(CCC(=O)Nc1ccc(Cl)c(Cl)c1)CC(=O)c1ccc(F)cc1 | > 100 µM | > 100 | – | > 100 | > 100 µM | > 100 | > 100 | > 100 | > 100 | > 100 | – | – | – | – | – | – | – | – | – | – |
| COc1ccc(C(c2ccc(OCCN(C)C)cc2)c2cc3ccccc3c3ccccc23)cc1 (centres undefined) | 2.91 µM | 3.13 | 20.9 | 3.39 | 3.3 µM | – | 2.92 | 3.75 | 3.25 | 3.06 | 1.51 | 1.64 | 1.7 | 0.536 | 1.78 | 1.68 | 1.57 | 1.89 | 1.74 | – |
| Cn1c(=O)c(NC(=O)C(Cl)(Cl)Cl)nc2ccccc21 | > 100 µM | – | > 100 | – | > 100 µM | > 100 | > 100 | > 100 | > 100 | > 100 | – | – | – | – | – | – | – | – | – | – |
| O=C(O)C1CC2(C1)CC(C(=O)O)C2 (centres undefined) | > 100 µM | > 100 | > 100 | > 100 | > 100 µM | > 100 | > 100 | – | > 100 | > 100 | – | – | – | – | – | – | – | – | – | – |
| O=C(NCCO)c1ccc([N+](=O)[O-])cc1 | > 100 µM | – | > 100 | – | > 100 µM | > 100 | > 100 | > 100 | > 100 | > 100 | – | – | – | – | – | – | – | – | – | – |
| Cc1cc(S(=O)(=O)/N=C/N(C)C)c(SC(=O)c2ccc(Cl)cc2)cc1Cl | 67.2 µM | 47.1 | – | > 100 | > 100 µM | > 100 | 71.1 | > 100 | 79.8 | 35.2 | 23.8 | 19.1 | 22.7 | – | 60.1 | 38.5 | 27 | 42.5 | 26.8 | > 100 |
| Cc1nc2c(o1)C(=Nc1ccccc1)c1ccccc1C2=O | 28.5 µM | 19.6 | 54.4 | – | 40.1 µM | 19.5 | 9.4 | 66.1 | 22.8 | 12.1 | – | – | – | – | – | – | – | – | – | – |
| Cc1noc2c1C(=O)CCC2 | > 100 µM | > 100 | – | > 100 | – | > 100 | – | > 100 | > 100 | > 100 | – | – | – | – | – | – | – | – | – | – |
| COc1cccc(CSCC(=O)O)c1 | > 100 µM | > 100 | > 100 | > 100 | > 100 µM | > 100 | > 100 | – | > 100 | > 100 | – | – | – | – | – | – | – | – | – | – |
| NC1=NC(c2ccc(Cl)cc2)N(c2ccc(S(N)(=O)=O)cc2)C(N)=N1 (centres undefined) | > 100 µM | > 100 | > 100 | > 100 | > 100 µM | > 100 | > 100 | – | > 100 | > 100 | – | – | – | – | – | – | – | – | – | – |
| NC(=O)c1ccccc1NC(=O)C(=O)Cc1nc2ccccc2[nH]c1=O | > 100 µM | > 100 | > 100 | > 100 | > 100 µM | > 100 | > 100 | > 100 | – | > 100 | – | – | – | – | – | – | – | – | – | – |
| CC(=O)OC1=CC2=CC[C@H]3[C@@H]4CCC(=O)[C@@]4(C)CC(=O)[C@]3(S)[C@@]2(C)CC1 | 87 µM | > 100 | > 100 | > 100 | > 100 µM | 79.6 | > 100 | – | > 100 | 36 | – | – | – | – | – | – | – | – | – | – |
| Clc1ccc(-c2csc(Nc3cccc(-c4csc(-c5ccccc5)n4)c3)n2)cc1 | 21.1 µM | 42.1 | 28.3 | – | 39 µM | 29 | 14.1 | 40.9 | 16.8 | 9.79 | 10.8 | 3.53 | 14.6 | 15.9 | – | 13.5 | 7.39 | 17.2 | 7.6 | 14.9 |
| O=[N+]([O-])c1ccc(C2CC(c3ccccc3Cl)=Nc3ccccc3S2=O)cc1 (centres undefined) | 3.31 µM | 4.26 | 6.03 | 6.12 | 8.57 µM | 48.3 | – | 3.63 | 5.2 | 3.79 | – | – | – | – | – | – | – | – | – | – |
| CC(=O)NC1C(OCc2ccccc2)OC(CO)C(O)C1OC(C)C(=O)N[C@@H](C)C(=O)N[C@H](CCC(=O)OCCNc1c2ccccc2nc2cccc([N+](=O)[O-])c12)C(N)=O (some centres undefined) | 0.00335 µM and 0.00671 µM | 0.0071 | 0.0199 | 0.0116 | 0.0679 µM and 0.022 µM | 0.0201 | – | 0.0564 | 0.0313 | – | – | – | – | – | – | – | – | – | – | – |
